Source: patent publication US20120028278A1, “CELL LINES EXPRESSING GUANYLATE CYCLASE-C AND METHODS OF USING THEM” (CHROMOCELL CORPORATION, priority 2009, published 2012)
Where a SMILES comes first, the peptide text is derived from it. Bridges are numbered along the chain shown (N, C = ends).

Tests used:
other cell lines = settings: low concentrations of guanylin, Forte et al., Endocr. 140(4):1800-1806 (1999); cited from earlier work
human GC-C [1] = target: T1, human GC-C (Homo sapiens, UniProt P25092, F281L); assay: Direct Cyclic GMP Enzyme Immunoassay Kit, cGMP in the produced GC-C-expressing cell line (guanylin dose-response and comparison with parental cells); format: cell-based
T1 construct: expressed in transfected cells; CMV promoter
T1 sequence (P25092 24-1073 F281L): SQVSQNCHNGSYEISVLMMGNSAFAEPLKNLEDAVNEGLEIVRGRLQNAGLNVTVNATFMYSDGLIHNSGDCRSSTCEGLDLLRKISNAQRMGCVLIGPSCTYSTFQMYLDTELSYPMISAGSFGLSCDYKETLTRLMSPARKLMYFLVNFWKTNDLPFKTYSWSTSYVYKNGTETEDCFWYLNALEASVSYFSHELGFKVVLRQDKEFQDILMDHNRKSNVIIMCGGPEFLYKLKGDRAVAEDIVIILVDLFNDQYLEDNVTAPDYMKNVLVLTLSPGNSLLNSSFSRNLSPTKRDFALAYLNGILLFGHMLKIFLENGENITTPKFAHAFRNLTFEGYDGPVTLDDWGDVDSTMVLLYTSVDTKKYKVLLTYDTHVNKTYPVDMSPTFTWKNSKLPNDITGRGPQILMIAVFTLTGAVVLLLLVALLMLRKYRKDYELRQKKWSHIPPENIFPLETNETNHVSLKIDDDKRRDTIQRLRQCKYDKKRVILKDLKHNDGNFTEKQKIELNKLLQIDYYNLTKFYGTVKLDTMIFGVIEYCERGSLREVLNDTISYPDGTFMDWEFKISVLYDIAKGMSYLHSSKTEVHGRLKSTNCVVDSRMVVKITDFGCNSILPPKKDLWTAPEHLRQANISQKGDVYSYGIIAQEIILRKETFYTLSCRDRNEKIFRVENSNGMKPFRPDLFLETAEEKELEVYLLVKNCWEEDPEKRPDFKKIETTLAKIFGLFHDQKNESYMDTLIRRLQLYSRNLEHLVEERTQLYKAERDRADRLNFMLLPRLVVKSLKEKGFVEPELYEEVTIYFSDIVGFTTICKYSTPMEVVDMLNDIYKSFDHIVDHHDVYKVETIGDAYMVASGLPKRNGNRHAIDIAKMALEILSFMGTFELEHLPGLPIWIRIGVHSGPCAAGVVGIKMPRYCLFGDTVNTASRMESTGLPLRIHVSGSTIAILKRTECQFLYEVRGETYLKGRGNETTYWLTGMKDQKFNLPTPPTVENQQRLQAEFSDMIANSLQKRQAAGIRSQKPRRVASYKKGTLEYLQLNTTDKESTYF
Experimental: Populations of cells were tested using functional criteria. The Direct Cyclic GMP Enzyme Immunoassay Kit (Cat. 900-014; AssayDesigns, Inc.) was used according to manufacturer's instructions: (http://www.assaydesigns.com/objects/catalog//product/extras/900-014.pdf). Cells were tested at 4 different densities in 96- or 384-well plates and responses were analyzed. The following conditions were used for the GC-C-expressing cell lines of the invention:
(§1) Cells were washed twice with serum-free medium and incubated with 1 mM IBMX for 30 minutes. Desired activators (i.e., guanylin, 0.001-40 μM) were then added to the cells and incubated for 30-40 minutes. Supernatant was removed, and the cells were washed with TBS buffer. […]. This was followed by lysis with 0.1N HCl and a freeze/thaw cycle at −20° C./room temperature. Defrosted lysates (samples were spun in Eppendorf tubes at 10,000 rpm) were centrifuged to pellet cell debris. The cleared supernatant lysate was then transferred to ELISA plates.
The cGMP level in the produced GC-C-expressing cell line treated with 100 nM guanylin was also compared to that of parental cell line control samples not expressing GC-C (not shown) using the Direct Cyclic GMP Enzyme Immunoassay Kit (Cat. 900-014; AssayDesigns, Inc.).
For guanylin dose-response experiments, cells of the produced GC-C-expressing cell line, plated at densities of 20,000, 40,000, 60,000, 80,000, 120,000 and 160,000 cells/well in a 96-well plate, were challenged with increasing concentration of guanylin for 30 minutes (see FIG. 2). […] 140(4):1800-1806 (1999)), indicating the potency of the clone.

human GC-C [2] = target: T1, human GC-C; assay: competitive ELISA for detection of cGMP in the produced GC-C-expressing cell line; format: cell-based; settings: 100 nM guanylin; cell lysate from GC-C-expressing cell line; FIG. 1
Experimental: A competitive ELISA for detection of cGMP was used to characterize native GC-C function in the produced GC-C-expressing cell line. Cells expressing GC-C were maintained under standard cell culture conditions in DMEM supplemented with 10% fetal bovine serum, glutamine and HEPES and grown in T175 cm flasks. For the ELISA, the cells were plated into coated 96-well plates (poly-D-lysine).
as §1
All of the following steps were performed at room temperature, unless otherwise indicated. ELISA plates were coated with anti-IgG antibodies in coating buffer (Na-carbonate/bi-carbonate buffer, 0.1 M final, pH 9.6) overnight at 4° C. […] The absorbance was then read at 405 nm on a SAFIRE^2™ plate reader (Tecan).
Maximum absorbance was seen when no cell lysate was used in the ELISA (Control).

[3] = target: human guanylate cyclase-C (GC-C) (human) (UniProt P25092); assay: cell-based or functional assay
Chain of human guanylate cyclase-C (GC-C) (human) (P25092 24-1073 F281L limits assumed): as the sequence (P25092 24-1073 F281L) above

absorbance (corresponding to cGMP levels) vs parental cells not expressing GC-C (human GC-C [1]; 100 nM guanylin, compared with parental cells treated and untreated with guanylin)	EC50 (human GC-C [1]; produced GC-C-expressing 293T cell line, guanylin 30 minutes, non-linear regression, GraphPad Prism 5.0) [nM]	level of cGMP (human GC-C [1]; produced GC-C-expressing cell line treated with low concentrations of guanylin) [pmol/mL]	absorbance (corresponding to cGMP levels) vs control without cell lysate (human GC-C [2])	EC50 of guanylin dose-response, cellular cGMP level (absorbance, Direct Cyclic GMP Enzyme Immunoassay Kit) [3] [nM]	level of cGMP in the GC-C-expressing cell line treated with low concentrations of guanylin [3] [pmol/mL]	Molecule	level of cGMP previously reported (other cell lines) [pmol/mL]
greater reduction in absorbance	~1.1	6	Reduction in absorbance			CC[C@H](C)[C@@H]1NC(=O)[C@H](CCC(=O)O)NC(=O)[C@@H](NC(=O)[C@@H](NC(=O)CNC(=O)[C@@H]2CCCN2)[C@@H](C)O)CSSC[C@@H]2NC(=O)[C@H](C)NC(=O)[C@H](C)NC(=O)[C@H](Cc3ccc(O)cc3)NC(=O)[C@H](C)NC(=O)[C@H](CSSC[C@@H](C(=O)O)NC(=O)CNC(=O)[C@H]([C@@H](C)O)NC2=O)NC1=O [guanylin] (H-PGTCEICAYAACTGC-OH; disulfide 4-12, 7-15 (inferred); N-terminus and C-terminus assumed)	3.5
				1.1	6	guanylin (peptide)	
